Laboratory results as given in a melting point compilation (Tetko et al.).

| SMILES | melting point |
| --- | --- |
| COC(=O)c1nc2nc(C(C)C)cc(Cl)n2n1 | 104 to 106 °C |
| CC1CCN(S(=O)(=O)c2ccc(C(=O)O)s2)CC1 | 207 to 209 °C |
| NS(=O)(=O)C1CCOCC1 | 129 to 131 °C |
| CC(CC(=O)O)c1ccc(C(F)(F)F)cc1 (stereo not given) | 88 to 90 °C |
| CC1=CSC(=C(C#N)N=O)N1 | 180 to 182 °C |
| NN1C(=O)NC(c2ccccc2)(c2ccccc2)C1=O | 188 to 192 °C |
| O=C(CCl)Nc1cccc(C(=O)Nc2cccc(C(F)(F)F)c2)c1 | 197 to 199 °C |
| N#CCc1cccc(C#N)c1 | 78 to 80 °C |
| NC(=O)CCn1ccnc1 | 137 to 139 °C |
| O=C(O)CSc1nnc(C2CC2)n1Cc1ccccc1 | 194 to 196 °C |
| OC(c1ccc(Cl)cc1)c1cccnc1 (stereo not given) | 106 to 108 °C |
| COc1cccc(C(N)CC(=O)O)c1OC (stereo not given) | 206 to 208 °C |
| CN(C)Cc1c(O)ccc2ccccc12 | 73 to 75 °C |
| CCOc1cccc(S(N)(=O)=O)c1 | 129 to 131 °C |
| O=[N+]([O-])c1cc(Cl)cnc1Br | 75 to 77 °C |
| O=C(NCC1CCCNC1)Nc1cccc(F)c1 (stereo not given) | 123 to 125 °C |
| CC(C)NCc1nc2ccccc2c(=O)[nH]1 | 145 to 147 °C |
| O=C(O)CCCn1ccc2cc(Cl)ccc21 | 79 to 81 °C |
| Cc1cccc(C(CO)N2CCNCC2)c1 (stereo not given) | 81 to 83 °C |
| CCCNC(=O)CC#N | 53 to 55 °C |
| O=C(O)CC1CCOc2ccccc21 (stereo not given) | 89 to 91 °C |
| CC(=O)c1nnn(-c2ccc(Cl)cc2)c1C | 113 to 115 °C |
| Cc1cc(NS(=O)(=O)c2cccc(C(=O)O)c2)no1 | 195 to 197 °C |
| CC(O)(C(=O)O)c1ccc(Cl)cc1 (stereo not given) | 129 to 131 °C |
| Cc1nc2ccccc2nc1CCl | 121 to 123 °C |

| SMILES | melting point |
| --- | --- |
| O=c1c(Br)c[nH]cc1[N+](=O)[O-] | 332 to 334 °C |
| CCOc1ccc2c(c1)NC(=O)C2=O | 226 to 228 °C |
| Cn1ccc(C(=O)N2CCC[C@H]2C(=O)O)cc1=O | 149 to 151 °C |
| CS(=O)(=O)Nc1ccc(N)cc1 | 114 to 116 °C |
| COCCn1nc(C(=O)O)ccc1=O | 156 to 158 °C |
| N#CCc1cc(Br)cnc1O | 209 to 211 °C |
| NC(=S)c1cccc(S(=O)(=O)NC2CCCCCCC2)c1 | 124 to 126 °C |
| CCOC(=O)Cc1ccc(F)cc1 | 29 to 31 °C |
| CC(N)=C(C#N)C(=O)O | 319 to 321 °C |
| Nc1ccc(F)c(S(=O)(=O)N2CCOCC2)c1 | 128 to 130 °C |
| CC(C)NC(=O)CSc1ccccc1C(=O)O | 181 to 185 °C |
| Brc1ccc(CN2CCNCC2)s1 | 50 to 52 °C |
| COc1cc2nc(C)sc2cc1N | 89 to 91 °C |
| NC(=O)c1ccccc1N1CCC(N)C1 (stereo not given) | 138 to 140 °C |
| CC(C)C(NC(=O)c1ccc([N+](=O)[O-])cc1Cl)C(=O)O (stereo not given) | 145 to 147 °C |
| O=C1CS/C(=C/C(=O)c2cccc(Cl)c2)N1 | 207 to 209 °C |
| COc1ccc(C(CC(=O)O)NC(C)=O)cc1 (stereo not given) | 186 to 188 °C |
| CCC(C)C(=O)N1CCCC(C(=O)O)C1 (stereo not given) | 118 to 120 °C |
| Brc1cnn(-c2nccs2)c1 | 78 to 80 °C |
| NS(=O)(=O)c1ccc(Cl)cn1 | 125 to 127 °C |
| Cc1ccc(-n2cccc2)c(C(=O)O)c1 | 126 to 128 °C |
| Cc1cn2cccnc2n1 | 97 to 99 °C |
| O=C(O)c1cc(-c2cccc(F)c2)no1 | 189 to 191 °C |
| O=C(O)CCN1C(=O)C2C3CCC(O3)C2C1=O (stereo not given) | 185 to 187 °C |
| Cc1cccc(CNCc2cccc(C)n2)n1 | 44 to 46 °C |

| SMILES | melting point |
| --- | --- |
| NNC(=O)CCc1ccccc1 | 99 to 101 °C |
| Cc1nn(-c2ccc(Cl)c(Cl)c2)c(C)c1CC(=O)O | 140 to 142 °C |
| NCC(O)c1ccccc1F (stereo not given) | 62 to 64 °C |
| Nc1ccc(Oc2ccc(Cl)cn2)cc1 | 70 to 72 °C |
| O=C(O)C1CC1c1c(F)cccc1F (stereo not given) | 89 to 91 °C |
| Cc1ccc(C)c(S(=O)(=O)N2CCNCC2)c1 | 108 to 110 °C |
| CCCOc1ccc(-c2nc(C(=O)O)cs2)cc1 | 183 to 185 °C |
| CC(=O)C(C#N)c1ccc(Cl)cc1 (stereo not given) | 129 to 131 °C |
| O=C(O)C1CC(=O)N(c2ccccc2Cl)C1 (stereo not given) | 141 to 143 °C |
| CCOC(=O)c1cnn(-c2ccc(C(F)(F)F)cn2)c1C | 88 to 90 °C |
| CCOc1cc(C(=O)O)c([N+](=O)[O-])cc1OC | 213 to 215 °C |
| Cc1ccc(NC(=O)CO)cc1 | 139 to 141 °C |
| O=C(CC(F)(F)F)c1cc(F)ccc1F | 45 to 47 °C |
| CS(=O)(=O)NCC#N | 69 to 71 °C |
| Cc1ccc(-c2nn(-c3ccccc3Cl)cc2C(=O)O)cc1 | 257 to 259 °C |
| Cc1cc(C(=O)O)sc1Br | 171 to 173 °C |
| CCOc1ccc(Cl)c(C(=O)O)n1 | 127 to 129 °C |
| O=C(O)c1cc(-c2ccccc2F)on1 | 182 to 184 °C |
| Nc1cccc(-c2nc(C3CC3)n[nH]2)c1 | 154 to 156 °C |
| Cc1ccc(-c2cncc(C(=O)O)c2)cc1 | 266 to 268 °C |
| COc1ccc(C(=O)O)cc1S(=O)(=O)Nc1ccc(C)cc1 | 258 to 260 °C |
| O=S1(=O)CCN(S(=O)(=O)Cl)CC1 | 177 to 179 °C |
| COCCc1ccc(OCCCC(=O)O)cc1 | 47 to 49 °C |
| Cc1ccc(N)cc1S(=O)(=O)Nc1ccc(Cl)cc1 | 144 to 146 °C |
| CC(C)Sc1ccc([N+](=O)[O-])cc1C(=O)O | 184 to 186 °C |

| SMILES | melting point |
| --- | --- |
| CCOc1c(Br)cc(C=O)cc1OC | 84 to 86 °C |
| Nc1nncc(-c2ccc(Br)cc2)n1 | 258 to 260 °C |
| Oc1ccc(-c2noc(C3CCCO3)n2)cc1 (stereo not given) | 96 to 98 °C |
| Cc1cc(C(=O)CCl)c(C)n1-c1ccc(OC(F)(F)F)cc1 | 76 to 80 °C |
| Cc1cc(N2CCNC(=O)C2)ccc1CN | 154 to 156 °C |
| C#CCNS(=O)(=O)c1ccc(C(=O)O)cc1 | 149 to 151 °C |
| N=C(N)NS(=O)(=O)c1ccccc1 | 211 to 213 °C |
| O=C(O)CCOC1CCOCC1 | 54 to 56 °C |
| CCOC1CCN(C(=O)Nc2cccc(C(=O)O)c2)CC1 | 179 to 181 °C |
| Cc1ccn(-c2ccc(C(=O)O)cc2)n1 | 178 to 180 °C |
| NCc1ccc(N2CCOC2=O)cc1 | 94 to 96 °C |
| CC(C)Cn1cc(C(F)F)c(C(=O)O)n1 | 94 to 96 °C |
| CS(=O)(=O)c1ccc(Br)c(C(=O)O)c1 | 203 to 205 °C |
| Cc1ccsc1C(N)=S | 117 to 119 °C |
| Cn1c(=O)c2nc(SCC(=O)O)[nH]c2n(C)c1=O | 259 to 261 °C |
| NS(=O)(=O)c1c(Cl)cccc1[N+](=O)[O-] | 143 to 145 °C |
| CCn1c(=O)cc(Cl)[nH]c1=O | 210 to 212 °C |
| Cc1nn(-c2ccccc2)c(N)c1-c1ccccc1 | 82 to 84 °C |
| O=C(O)c1cccc(Oc2ccc(Cl)cc2)n1 | 115 to 117 °C |
| N#Cc1cnn(-c2ccncc2)c1N | 273 to 275 °C |
| Nc1cc(C(=O)O)ccc1OC(F)F | 155 to 157 °C |
| O=C(O)CNC(=O)c1ccc(S(=O)(=O)Cl)cc1 | 130 to 132 °C |
| NCc1cccc(NC(=O)c2ccncc2)c1 | 128 to 130 °C |
| N#Cc1ccc(C(O)C(=O)O)cc1 (stereo not given) | 89 to 91 °C |
| COc1cc(OC)c2cc(C(=O)O)[nH]c2c1OC | 181 to 183 °C |

| SMILES | melting point |
| --- | --- |
| O=c1[nH]cnc2nc(NCc3ccco3)sc12 | 279 to 281 °C |
| CCOC(=O)c1cnn(CCC#N)c1 | 87 to 89 °C |
| Nc1nnc(-c2cccc([N+](=O)[O-])c2)o1 | 256 to 258 °C |
| NS(=O)(=O)c1cnn(CC(=O)O)c1 | 156 to 158 °C |
| O=C(CO)c1ccc(Cl)cc1 | 124 to 126 °C |
| O=S(=O)(Cl)c1ccc2oc3ccccc3c2c1 | 134 to 136 °C |
| Cc1ccc2c(CC(=O)O)cc(=O)oc2c1 | 209 to 211 °C |
| NC(=S)Nc1cccc(Oc2ccccc2)c1 | 119 to 121 °C |
| O=[N+]([O-])c1cc(CCl)c2c(c1)COCO2 | 94 to 96 °C |
| CCOC(=O)C(=O)c1c(-c2ccc(C)cc2)nc2ccccn12 | 116 to 118 °C |
| Nc1cccc(N2CCCS2(=O)=O)c1 | 85 to 87 °C |
| CC(=O)c1c(C#N)c2n(c1C)CCC2 | 132 to 134 °C |
| O=C(Nc1ccccc1C(=O)O)c1ccccc1I | 204 to 206 °C |
| Nc1ccc(NC(=O)N2CCCCCC2)cc1 | 132 to 134 °C |
| NNC(=O)COc1ccccc1O | 152 to 154 °C |
| Cc1nc(O)nc(O)c1N | 259 to 261 °C |
| O=C(O)C(OC1CCOCC1)c1ccccc1 (stereo not given) | 87 to 89 °C |
| NC(=O)NCc1ccco1 | 120 to 122 °C |
| Cc1ccnc(-c2ccc(N)cc2)n1 | 118 to 120 °C |
| CCn1c(SCC(=O)O)nnc1-c1cccs1 | 157 to 159 °C |
| Oc1ccc2c(c1)CNCC2 | 194 to 196 °C |
| COc1cc(C=O)c([N+](=O)[O-])cc1OCC(F)(F)F | 150 to 152 °C |
| O=C1CC(C(=O)O)CC(=O)N1 | 204 to 206 °C |
| CC1CNC(=Nc2cnc3ccccc3c2)S1 (stereo not given) | 144 to 146 °C |
| Cc1cc(C(F)(F)F)c(C#N)c(SCC(=O)O)n1 | 132 to 134 °C |

| SMILES | melting point |
| --- | --- |
| O=C(O)c1csc(-c2ccc([N+](=O)[O-])cc2)n1 | 198 to 200 °C |
| Sc1n[nH]c(C2CC2)n1 | 235 to 237 °C |
| O=C(CCl)Nc1nncs1 | 233 to 235 °C |
| Cc1ccc2nc(C3CC3)cc(C(=O)O)c2c1 | 207 to 209 °C |
| CNCCCc1n[nH]c(N)c1C#N | 179 to 181 °C |
| Cc1cc(C(=O)CCl)c(C)n1CC(F)(F)F | 143 to 145 °C |
| CC(C)n1c(S)nc2ccccc21 | 138 to 140 °C |
| O=c1ccccn1CCO | 88 to 90 °C |
| Nc1sc2c(c1C(=O)O)CCSC2 | 169 to 171 °C |
| O=C1Nc2ccccc2C1O (stereo not given) | 161 to 163 °C |
| Cc1ccc(OC2CCNCC2)cc1 | 44 to 46 °C |
| Cc1cccc(C(N)=O)c1N | 145 to 147 °C |
| CC1CCC(C(C)C)C(OC(=O)CCl)C1 (stereo not given) | 65 to 66 °C |
| O=C(NO)c1ccc(Br)s1 | 152 to 160 °C |
| OC(c1ccccc1)c1cccc(Cl)c1Cl (stereo not given) | 79 to 81 °C |
| Fc1ccc(-c2cnc(S)o2)cc1 | 252 to 254 °C |
| CC(=O)c1ccc(C)c([N+](=O)[O-])c1 | 59 to 62 °C |
| CC1(O)CCNC1 (stereo not given) | 37 to 39 °C |
| Cn1ccnc1C(N)c1ccccc1 (stereo not given) | 51 to 53 °C |
| COc1cccc(C(=O)O)c1F | 157 to 160 °C |
